Laboratory results: article PMC4891189 (Pharmaceutical research, 2015)
“Also recorded” adds a separate entry of the source.

Legend:
[1] = PAMPA permeability at different pH
[2] = test system: P-gp (MDR1); assay: Bidirectional transport across MDCK-MDR1 cell monolayers; type: in vitro ADME, canine; details: dog
[3] = test system: MDCK-MDR1 cell monolayers; assay: as above; type: in vitro ADME, canine
[4] = test system: P-gp; assay: Bidirectional transport across Caco-2 cell monolayers; details: human
[5] = test system: hemodynamic effects; details: healthy subjects ref 8; cited from earlier work
[6] = test system: Caco-2 cell monolayers; assay: Bidirectional transport across Caco-2 cell monolayers; details: 50 µM
[7] = test system: beta-blocking activity; details: animal studies ref 7; cited from earlier work
[8] = test system: rat jejunum
[9] = test system: rat jejunum; assay: Transport study in rat jejunum Ussing chamber; details: after 90 min, leakage indicator
[10] = cited from earlier work
[11] = oral administration, after first-pass metabolism; cited from earlier work
[12] = test system: P-gp; details: mdr1a (−/−) mice intestine ref 29; cited from earlier work
[13] = test system: human jejunum; details: single-pass perfusion, healthy volunteers ref 9; cited from earlier work
[14] = MDCK-MDR1, pH 7.4, with GG918 0.5 µM
[15] = Caco-2, pH 7.4, with GG918 0.5 µM
[16] = 50 µM, MDCK-MDR1, pH 7.4, GG918 0.5 µM

Structure (SMILES): C[C@H]1O[C@@H](O[C@H]2[C@@H](O)C[C@H](O[C@H]3[C@@H](O)C[C@H](O[C@H]4CC[C@@]5(C)[C@H](CC[C@@H]6[C@@H]5C[C@@H](O)[C@]5(C)[C@@H](C7=CC(=O)OC7)CC[C@]65O)C4)O[C@@H]3C)O[C@@H]2C)C[C@H](O)[C@@H]1O [Digoxin, digoxin]
- effect of apical pH on permeability ([1]; 5 µM digoxin): no statistical differences; also recorded: did not show different permeability results
- Papp A→B at 120 min, 0.01 µM ([2]; MDCK-MDR1, pH 7.4): 0.26 ± 0.02 ×10⁻⁶ cm/s
- Papp B→A at 120 min, 0.01 µM ([2]; MDCK-MDR1, pH 7.4): 2 ± 0.01 ×10⁻⁶ cm/s
- Papp A→B at 120 min, 0.01 µM [2, 14]: 0.41 ± 0.1 ×10⁻⁶ cm/s
- Papp B→A at 120 min, 0.01 µM [2, 14]: 0.67 ± 0.06 ×10⁻⁶ cm/s
- efflux ratio at 120 min, 0.01 µM ([2]; MDCK-MDR1, pH 7.4, with GG918 0.5 µM, Efflux Ratio, Digoxin 0.01 µM, MDR1-MDCK cells, +GG918 0.5 µM): < 2
- Efflux Ratio ([3]; Digoxin 0.01 µM, MDR1-MDCK cells, +GG918 0.5 µM): 1.52±0.16
- Papp A→B at 120 min, 0.01 µM ([4]; Caco-2, pH 7.4): 0.64 ± 0.03 ×10⁻⁶ cm/s
- Papp B→A at 120 min, 0.01 µM ([4]; Caco-2, pH 7.4): 1.64 ± 0.13 ×10⁻⁶ cm/s
- efflux ratio at 120 min, 0.01 µM ([4]; Caco-2, pH 7.4): 2.57 ± 0.33
- Papp A→B at 120 min, 0.01 µM [4, 15]: 1.17 ± 0.07 ×10⁻⁶ cm/s
- Papp B→A at 120 min, 0.01 µM [4, 15]: 1.19 ± 0.05 ×10⁻⁶ cm/s
- efflux ratio at 120 min, 0.01 µM [4, 15]: < 2

Structure (SMILES): CC(C)NC[C@@H](O)COc1cccc2ccccc12 [R-propranolol]
- hemodynamic effects [5]: ineffective

Structure (SMILES): CC(C)NCC(O)COc1cccc2ccccc12 (centres unmarked) [S-propranolol]
- mass retention ([1]; 25 nM): 58±4%
- mass retention ([1]; 50 µM): 12%±1
- permeability compared with high permeability standard labetalol ([1]; 50 µM each, pH 7.4 both sides): higher permeability than 50 µM labetalol
- simulated efflux ratio (Papp, B->A/ Papp, A->B) ([1]; 50 µM, apical pH 6.5, basolateral pH 7.4): 3.39
- simulated efflux ratio (Papp, B->A/ Papp, A->B) ([1]; 50 µM, apical pH 7.4, basolateral pH 7.4): 1
- Papp, A->B ([1]; 50 µM, pH 6.5→pH 7.4): 8.1±0.3 × 10^−6 cm/sec
- simulated Papp, B->A ([1]; 50 µM, pH 7.4→pH 6.5): 27.3±0.4 × 10^−6 cm/sec
- Papp ([1]; 50 µM, pH 7.4→pH 7.4): 19.2±2.6 × 10^−6 cm/sec
- mass retention ([1]; 100 µM): 8%±1
- pH dependent transcellular permeability at 100 µM compared with 50 µM ([1]; 100 µM): almost identical to that observed at 50 µM
- effect of GG918 on basolateral and apical permeabilities ([3]; 25 nM, MDCK-MDR1, pH 7.4 on both sides): no effect of GG918 was observed
- Papp, A->B in the presence of GG918 ([3]; 50 µM, MDCK-MDR1, apical pH 6.5): decreased significantly
- Papp, A→B in the absence or presence of GG918 [3, 16]: unexplained significant difference
- basolateral to apical efflux in the absence or presence of GG918 [3, 16]: no significant differences
- change of Papp, A->B as apical pH changed from 7.4 to 6.5 ([6]; Caco-2): markedly decreased
- change of Papp, B->A as apical pH changed from 7.4 to 6.5 ([6]; Caco-2): significantly increased
- Papp, A->B in the presence of GG918 ([6]; Caco-2, apical pH 6.5): small but significant increase
- basolateral to apical efflux in the presence or absence of GG918 ([6]; Caco-2, apical pH 6.5): no significant differences
- beta-blocking activity, times more potent than R-propranolol [7]: 100 times
- effect of verapamil on Papp in the absorptive direction ([8]; not told): did not alter
- change of Papp mucosal to serosal (absorption) with mucosal pH ([8]; pH 6.5): statistically significant decrease
- effect of mucosal pH on serosal to mucosal permeability (secretion) ([8]; pH 6.5): didn’t significantly affect

Structure (SMILES): O=S1(=O)OC(c2ccc(O)cc2)(c2ccc(O)cc2)c2ccccc21 [phenol red]
- permeated from the mucosal to serosal side [9]: less than 1%

Structure (SMILES): CC(C)NCC(O)COc1cccc2ccccc12.Cl (centres unmarked) [propranolol HCl]
- dose number [10]: 0.006

Structure (SMILES): CC(C)NCC(O)COc1cccc2ccccc12 (centres unmarked) [propranolol]
- dose reaching the systemic circulation unchanged [11]: 25%
- permeability, P-gp expressed vs knocked out [12]: not influenced
- effective permeability [13]: 280 ×10⁻⁶ cm/s
